Earlier results in US7169982B2, “Starch” (Basf Plant Science GmbH, priority 2001, dated 2007).
Like-named read-outs stand apart in the source and are kept apart here.

Key:
[1] = tested on: maize starch synthase SSIIb-2 (SEQ ID NO:7) mutant E391D; conditions: read-out: Km (ADPGlc)
[2] = tested on: maize starch synthase SSIIb-2 (N-terminally truncated form of mSSIIb produced in E. coli), non-mutant, SEQ ID NO:7; conditions: read-out: Km (ADPGlc)
[3] = tested on: maize starch synthase SSIIb-2 (SEQ ID NO:7) mutant D21N; conditions: read-out: Km (ADPGlc)
[4] = tested on: maize starch synthase SSIIb-2 (SEQ ID NO:7) mutant D139E; conditions: read-out: Km (ADPGlc)
[5] = tested on: maize starch synthase SSIIb-2 (SEQ ID NO:7) mutant D21E; conditions: amylopectin as primer, 5 mg/ml; read-out: Km (ADPGlc)
[6] = tested on: maize starch synthase SSIIa (SEQ ID NO:8) mutant K497Q; conditions: for Km: read-out: Km for ADPG
[7] = tested on: maize starch synthase SSIIa (SEQ ID NO:8) mutant K193R; conditions: for Km: read-out: Km for ADPG
[8] = tested on: maize starch synthase SSIIa, wild-type, SEQ ID NO:8; conditions: for Km: read-out: Km for ADPG
[9] = tested on: maize starch synthase SSIIa (SEQ ID NO:8) mutant K193Q; conditions: for Km: read-out: Km for ADPG
[10] = tested on: maize starch synthase SSIIa (SEQ ID NO:8) mutant K193E; conditions: for Km: read-out: Km for ADPG

SMILES: Nc1ncnc2c1ncn2[C@@H]1O[C@H](COP(=O)(O)OP(=O)(O)O[C@H]2O[C@H](CO)[C@@H](O)[C@H](O)[C@H]2O)[C@@H](O)[C@H]1O [ADPGlc, ADP-glucose]
- Km ([1]; amylopectin as primer, 5 mg/ml): 1370 ± 140 µM
- Km ([1]; glycogen as primer, 20 mg/ml): 1180 ± 140 µM
- Km ([2]; amylopectin as primer, 5 mg/ml): 160 ± 30 µM
- Km ([2]; glycogen as primer, 20 mg/ml): 130 ± 20 µM
- Km ([3]; amylopectin as primer, 5 mg/ml): 1580 ± 110 µM
- Km ([3]; glycogen as primer, 20 mg/ml): 1480 ± 30 µM
- Km ([4]; amylopectin as primer, 5 mg/ml): 90 ± 30 µM
- Km ([4]; glycogen as primer, 20 mg/ml): 70 ± 20 µM
- Km [5]: 130 ± 30 µM
- Vmax ([6]; amylopectin as primer): 13.5 ± 0.21 μmol/min/mg protein
- Km ([6]; amylopectin as primer): 5620 ± 230 µM
- Vmax ([6]; glycogen as primer): 23.8 ± 2.5 μmol/min/mg protein
- Km ([6]; glycogen as primer): 6910 ± 330 µM
- Vmax ([7]; amylopectin as primer): 18.2 ± 0.91 μmol/min/mg protein
- Km ([7]; amylopectin as primer): 150 ± 10 µM
- Vmax ([7]; glycogen as primer): 42.27 ± 3.01 μmol/min/mg protein
- Km ([7]; glycogen as primer): 150 ± 20 µM
- Vmax ([8]; amylopectin as primer): 49.9 ± 4.06 μmol/min/mg protein
- Km ([8]; amylopectin as primer): 110 ± 10 µM
- Vmax ([8]; glycogen as primer): 34.47 ± 1.70 μmol/min/mg protein
- Km ([8]; glycogen as primer): 120 ± 10 µM
- Vmax ([9]; amylopectin as primer): 17.4 ± 1.58 μmol/min/mg protein
- Km ([9]; amylopectin as primer): 130 ± 10 µM
- Vmax ([9]; glycogen as primer): 6.20 ± 0.01 μmol/min/mg protein
- Km ([9]; glycogen as primer): 100 ± 10 µM
- Vmax ([10]; amylopectin as primer): 10.53 ± 0.5 μmol/min/mg protein
- Km ([10]; amylopectin as primer): 220 ± 10 µM
- Vmax ([10]; glycogen as primer): 25.45 ± 0.08 μmol/min/mg protein
- Km ([10]; glycogen as primer): 170 ± 20 µM
